Non-standard residues stand in square brackets, D forms with d. No end group written: not given here. pS = N[C@@H](COP(=O)(O)O)C(=O)O
Tests used:
[1] = test system: anti-NF—H antibodies; test: ELISA comparison of AD and NC sera with peptides; separation algorithms and grouping of peptides into FACTs; format: binding, human; conditions: single peptide
Experimental: A Streptavidin stock solution (2 mg/ml Streptavidin prepared in purified water, aliquoted, and stored at −20° C.) was diluted 1:400 in ddH2O and a 100 μl aliquot was added to each well of a multiwell plate (96 well C-shaped microplates). The plates were incubated at 37° C. overnight until the liquid was entirely evaporated and stored until use at 4° C. in plastic bags containing a desiccating material. Such coated plates retained their activity for at least few days. The plates were washed 4 times by immersing in TBST. 200 μl of blocking solution were added to each of the wells. The plates were then incubated for 1 hour at room temperature. 100 μl of the biotinylated peptide (1 μg/ml in TBST) were added to each of the wells with the exception of the control wells. The plates were then incubated for 1 hour at room temperature.
Following incubation, the plates were washed in TBST 4 times as above. A 100 μl aliquot of serum which was diluted in a dilution buffer was added to each well and the plates were incubated for 1 hour at room temperature.
Following this incubation the wells were washed in TBST 4 times as above. A 100 μl aliquot of a secondary antibody (Goat anti-human IgG Horse radish peroxidase conjugate) which was diluted 1:2000 in dilution buffer was added to each well and the plates were incubated for 1 hour at room temperature.
The wells were then washed in TBST 4 times as above followed by two washes in TBS (TBST w/o Tween-20).
A 100 μl aliquot of the substrate solution was added to each well and the plates were incubated at room temperature.
OD was measured at 450 nm and 620 nm every minute over a period of 10-15 minutes.
Employing the above optimized parameters, eight AD and eight NC sera were analyzed using peptide 3M (SEQ ID NO:31). The experiment was repeated over a period of four days, employing four different plates each day. Two plates were preblocked with Gelatin, while two were not. In one experiment chloroform treated serum was analyzed on two additional plates. Three AD sera consistently gave rise to high signals in all experiments. One AD serum caused high signals in 10 out of the 13 plates and four AD sera were consistently negative. One NC sera caused high signals in some of the plates in the experiments conducted on all four days. Two additional NC sera gave rise to high signals in some of the plates in the experiments conducted on three of the four days. […] The reproducibility of the experiments was assessed by averaging the rank-order numbers of each sample in every experiment (Table 3). […]
A series of experiments were performed in which 48 AD and 48 NC were analyzed by the use of 17 different peptides (INO; 2L; 2LR; 3NO; 3L; 3M; 3R; 3LM; 3LR; 4LM; 4MR; 4LMR; 5LM; 6LR; 7MR; 8LMR and 8LMR-V). […]

[2] = test system: anti-NF—H antibodies; test: Streptavidin-biotin ELISA: serum IgG binding to biotinylated NF-H peptide (protocol optimisation, pooled AD serum); set-up: species or system human; conditions: serum pooled from 10 AD patients; streptavidin plates blocked or not blocked; FIG. 1
Experimental: Solutions and Materials: Tris Buffered Saline (TBS): 50 mM Tris-HCl, pH 7.4 (Tris (Sigma, T-1378); HCl (Merck 1.00319.1000)) 200 mM NaCl (Merck, 1.06404.1000). TBST: 0.05% (w/v) Tween-20 (Sigma, P-7949) in TBS. Phosphate Buffered Saline (PBS): 0.1 M phosphate buffer, pH 7.2 (Sodium phosphate, monobasic (Sigma. S-8182) and Sodium phosphate, dibasic (Sigma, S-7907)). 200 mM NaCl (Merck, 1.06404.1000). PBST: 0.05% (w/v) Tween-20 (Sigma, P-7949) in PBS. Dilution/Blocking buffer: 0.5% Gelatin (Difco, 0143-17-9) in TBST. Streptavidin stock solution: 2 mg/ml Streptavidin (Sigma, S4762) in purified water. Aliquoted and kept at −20° C., this solution is stable indefinitely. Multiwell Plates: Nunc Maxisorp (Cat. No. 442404) 96 well C-shaped microplates. Secondary antibody: Goat anti-human IgG Horse radish peroxidase conjugate (Jackson, 109-035-088). Substrate solution: 1 mg/ml OPD (Sigma, P-8412)+0.005% H2O2 (Merck, 1.07210.0250) in […] Sodium Citrate buffer, pH 5 (Merck, 1.00 244.1000).
A Streptavidin stock solution (2 mg/ml Streptavidin prepared in purified water, aliquoted, and stored at −20° C.) was diluted 1:400 in ddH2O and a 100 μl aliquot was added to each well of a multiwell plate (96 well C-shaped microplates). […]
OD was measured at 450 nm and 620 nm every minute over a period of 10-15 minutes. […]

Sequence: A K S P A E A K S(PO3H) P V K E E A K S P-OH (AKSPAEAK[pS]PVKEEAKSP-OH; N-terminus assumed; SMILES CC(C)[C@H](NC(=O)[C@@H]1CCCN1C(=O)[C@H](COP(=O)(O)O)NC(=O)[C@H](CCCCN)NC(=O)[C@H](C)NC(=O)[C@H](CCC(=O)O)NC(=O)[C@H](C)NC(=O)[C@@H]1CCCN1C(=O)[C@H](CO)NC(=O)[C@H](CCCCN)NC(=O)[C@H](C)N)C(=O)N[C@@H](CCCCN)C(=O)N[C@@H](CCC(=O)O)C(=O)N[C@@H](CCC(=O)O)C(=O)N[C@@H](C)C(=O)N[C@@H](CCCCN)C(=O)N[C@@H](CO)C(=O)N1CCC[C@H]1C(=O)O) [3M]
- sensitivity ([1]; eight AD and eight NC samples): 50%
- specificity ([1]; eight AD and eight NC samples): 87%
- AD cases detected ([1]; eight AD and eight NC sera, pre-blocked plates): four out of eight
- false positive signal ([1]; eight AD and eight NC sera, pre-blocked plates (sample No. 485)): one
- saturating concentration of the peptide [2]: 0.4 to 0.8 µg/mL
